Reference: publication PMC10815500, “Design of Two New Sulfur Derivatives of Perezone: In Silico Study Simulation Targeting PARP-1 and In Vitro Study Validation Using Cancer Cell Lines” (International Journal of Molecular Sciences, 2024)
Read-outs that look alike come from different tables or passages of the source.

Legend:
[1] = biological target: T1, PARP-1 enzyme (Homo sapiens, UniProt P09874); design: purchased BPS Bioscience Inc. 80580; details: previously demonstrated; read-out: IC50 (PARP-1 inhibition) of perezone and natural derivatives; cited from earlier work
T1 sequence (P09874 whole entry): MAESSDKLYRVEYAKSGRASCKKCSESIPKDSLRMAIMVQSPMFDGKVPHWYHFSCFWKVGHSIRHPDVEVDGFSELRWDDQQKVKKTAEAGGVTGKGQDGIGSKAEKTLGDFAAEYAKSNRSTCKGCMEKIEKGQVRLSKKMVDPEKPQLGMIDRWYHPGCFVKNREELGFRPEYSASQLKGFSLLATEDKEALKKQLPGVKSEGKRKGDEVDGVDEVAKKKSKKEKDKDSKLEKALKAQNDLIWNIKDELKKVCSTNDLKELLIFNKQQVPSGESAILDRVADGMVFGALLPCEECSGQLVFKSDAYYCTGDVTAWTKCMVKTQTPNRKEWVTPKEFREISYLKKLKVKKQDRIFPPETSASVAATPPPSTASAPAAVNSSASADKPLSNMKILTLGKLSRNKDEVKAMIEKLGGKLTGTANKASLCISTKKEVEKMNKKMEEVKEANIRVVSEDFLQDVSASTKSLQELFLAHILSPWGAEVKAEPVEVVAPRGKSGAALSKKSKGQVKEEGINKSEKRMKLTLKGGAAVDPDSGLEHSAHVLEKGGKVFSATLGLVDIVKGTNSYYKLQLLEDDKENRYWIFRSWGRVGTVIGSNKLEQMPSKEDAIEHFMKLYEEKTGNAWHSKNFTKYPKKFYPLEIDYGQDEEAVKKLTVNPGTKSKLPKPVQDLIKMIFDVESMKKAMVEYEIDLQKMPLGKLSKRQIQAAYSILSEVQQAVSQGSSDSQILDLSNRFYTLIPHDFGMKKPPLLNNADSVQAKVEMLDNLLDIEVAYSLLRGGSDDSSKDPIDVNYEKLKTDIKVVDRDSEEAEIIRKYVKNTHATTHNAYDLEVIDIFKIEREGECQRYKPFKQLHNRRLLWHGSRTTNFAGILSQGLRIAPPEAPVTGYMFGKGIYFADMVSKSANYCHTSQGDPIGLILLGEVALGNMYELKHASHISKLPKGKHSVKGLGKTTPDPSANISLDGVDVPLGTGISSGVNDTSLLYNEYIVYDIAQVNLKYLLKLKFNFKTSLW

[2] = tested on: A-549; experiment: MTT cytotoxic assay, A-549 cells; format: cell-based; details: Homo sapiens, A549, cancer cell line, 48 h, read-out: Inhibitory concentration (IC50) A-549
Description: (§1) At the end of this time, 20 µL of the MTT solution (5 mg/mL) was added to each well and incubated for 4 h in the dark at 37 °C and 5% CO2. The supernatant was decanted, and the resulting formazan was dissolved in isopropyl alcohol with 4 mM HCl solution and was read in a UV/Vis reader at 590 nm. The results obtained were plotted, and the IC50 was obtained through linear regression.

[3] = tested on: Mix cells; experiment: MTT cytotoxic assay, mixed culture of microglia; format: cell-based; details: normal cells, 48 h, read-out: Inhibitory concentration (IC50) Mix cells
Description: as §1, with “regression. […]” for “regression.”
(§2) of the incubation, an MTT assay was performed to determine the viability of cells under treatment. Each bar in the chart indicates the percentage means and standard error of the mean. […]
(§3) healthy endothelial cells, VERO cells, and mixed culture of microglia, employing perezone (dotted) as a control. Cells from each line were incubated without control and with increased concentrations of the studied compounds during 48 h (n= 8). At the end of the incubation, an MTT assay was performed to determine the viability of cells under treatment. Each bar in the chart indicates the percentage means and […]
(§4) (1 picture or pasted object on this page, not shown here)

[4] = tested on: MCF-7; experiment: MTT cytotoxic assay, MCF-7 cells; format: cell-based; details: Homo sapiens, MCF7, cancer cell line, 48 h, read-out: Inhibitory concentration (IC50) MCF-7
Description: as §1

[5] = tested on: MDA-MB-231; experiment: MTT cytotoxic assay, MDA-MB-231 cells; format: cell-based; details: Homo sapiens, cancer cell line, 48 h, read-out: Inhibitory concentration (IC50) MDA-MB-231
Description: as §1

[6] = tested on: VERO; experiment: MTT cytotoxic assay, VERO cells; format: cell-based; details: Chlorocebus sabaeus, normal cell line, 48 h, read-out: Inhibitory concentration (IC50) VERO
Description: as §1, with “regression. […]” for “regression.”
as §2, §3, §4

[7] = tested on: HELA; experiment: MTT cytotoxic assay, Hela cells; format: cell-based; details: Homo sapiens, cancer cell line, 48 h, read-out: Inhibitory concentration (IC50) HELA
Description: as §1

[8] = tested on: Rat endothelial cells; experiment: MTT cytotoxic assay, healthy endothelial cells; format: cell-based; details: Endothelial cell, normal cell line, 48 h, read-out: Inhibitory concentration (IC50) Rat endothelial cells
Description: as §1, with “regression. […]” for “regression.”
as §2, §3, §4

[9] = biological target: T1, PARP-1 enzyme; experiment: PARP-1 inhibition assay (colorimetric assay kit)
Description: Absorbances were obtained at 450 nm using a UV/Vis spectrophotometer E max Precision microplate reader (Molecular Devices, San Jose, CA, USA).

Compound	IC50 [1]	IC50 [2]	IC50 [3]	IC50 [4]	IC50 [5]	IC50 [6]	IC50 [7]	IC50 [8]	IC50 [9]
C/C=C(/C)C(=O)OC1=C([C@H](C)CCC=C(C)C)C(=O)C=C(C)C1=O [Compound 2, perezone angelate]	5.25 µM	–	–	–	–	–	–	–	–
CC(C)=CCC[C@@H](C)C1=C(O)C(=O)C(C)=CC1=O [Compound 1, perezone]	181 µM	144 µM	63.1 µM	53.2 µM	7.8 µM	312 µM	42.3 µM	> 200 µM	–
CC(C)=CCC[C@@H](C)C1=C(O)C(=O)C(C)=C(O)C1=O [Compound 3, hydroxyperezone]	320 µM	–	–	–	–	–	–	–	–
CC(C)=CCCC(C)C1=C(O)C(=O)C(C)=C(Sc2ccc(F)cc2CO)C1=O (centres unmarked) [Compound 9, 2-((4-fluoro-2-(hydroxymethyl)phenyl)thio)-5-hydroxy-3-methyl-6-(6-methylhept-5-en-2-yl)cyclohexa-2.5-diene-1,4-dione]	–	> 200 µM	179 µM	83.2 µM	145 µM	186 µM	200 µM	> 200 µM	0.317 µM
CC(C)=CCCC(C)C1=C(O)C(=O)C(C)=C(Sc2ccc(CC(=O)O)cc2)C1=O (centres unmarked) [Compound 10, 2-(4-((hydroxy-2-methyl-5-(6-methylhept-5-en-2-yl)-3,6-dioxocyclohexa-1,4-dien-1-yl)thio)phenyl)acetic acid]	–	> 200 µM	> 200 µM	> 200 µM	> 200 µM	168 µM	> 200 µM	> 200 µM	0.32 µM
